Experimental data published in patent US20160296529A1, “AMINOTRIAZOLOPYRIDINE FOR USE IN THE TREATMENT OF INFLAMMATION, AND PHARMACEUTICAL COMPOSITIONS THEREOF” (priority 2012, published 2016).

Legend:
[1] = Single dose pharmacokinetics in animals, mouse; assay type: in vivo, CD1 mice; details: male, CD1, plasma, after Formula II 30 mg/kg oral, read-out: exposure (expressed as AUC)
Experimental: Pharmacokinetic studies were performed in various animal species dosed with the compound according to Formula II to determine the exposure to the compound according to Formula I as well as its apparent terminal half life (T1/2), when possible.
Sprague-Dawley rats (male, 200-250 g), CD1 mice (male, 25-30 g), Beagle dogs (male, 9-10 kg), Göttingen minipigs (male, 10-15 kg) and New Zealand White rabbits (male, 3-5 kg) were acclimatized for at least 7 days before treatment and were kept on a 12 hr light/dark cycle (07 h00-19 h00).
Temperature was maintained at approximately 22° C., and food and water were provided ad libitum.
The compound according to Formula II was formulated in 0.5% methylcellulose and dosed orally to 3 animals (or 3 mouse/time points) as a single esophageal gavage at dose ranging from 15 to 45 mg/kg under a dosing volume of 5 or 10 mL/kg.
Blood samples were collected over a 24-h period via the jugular vein (dog, minipig), ear blood vessel (rabbit), cardiac puncture (mouse) or retro-orbital sinus (rat) with lithium heparin as anti-coagulant. Whole blood samples were centrifuged and the resulting plasma samples were stored at −20° C. pending analysis.
Plasma concentrations of the compound according to Formula I and of the compound according to Formula II were determined by an LC-MS/MS method with a limit of quantification ≦10.0 ng/mL for both Formula I and Formula II for all species.
Pharmacokinetic parameters were calculated using a statistical analysis package (WinNonLin (Pharsight, Sunnyvale, Calif.: CA 94086, USA).

hepatocytes of rat = experiment: In vitro metabolism study in hepatocytes, rat; assay type: in vitro ADME; details: rat hepatocyte suspension, 24 h incubation of 100 μM [14C]-Formula II
Experimental: (§1) Hepatocyte stability (Concentrations of the compound according to Formula II and its main metabolites (as % of total radioactivity) after 24 h incubation of 100 μM [^14C]-Compound according to Formula II in hepatocyte suspension of different species)

hepatocytes of dog = experiment: In vitro metabolism study in hepatocytes, dog; assay type: in vitro ADME; details: dog hepatocyte suspension, 24 h incubation of 100 μM [14C]-Formula II
Experimental: as §1

rat CIA model = experiment: CIA model 2 (rat collagen induced arthritis, ankle diameter); assay type: in vivo, Female Lewis rats
Source text: Female Lewis rats (n=76) that weighed 165-194 grams (mean approx. 178 g) on arthritis day 0 were obtained from Charles River Laboratories, Inc., Wilmington, Mass., (ref#393739). Animals were identified by a distinct number at the base of the tail delineating group and animal number.
Upon arrival, animals were housed 4/cage in shoe-box polycarbonate cages and acclimated for 8 days prior to being immunized with type II collagen. No concurrent medications were given.
During the acclimation and study periods, animals were housed in a laboratory environment with temperatures ranging 19-25° […]. and relative humidity of 30%-70%. Automatic timers provided 12 h of light and 12 h of dark. Animals were allowed access ad libitum to food and water.
Acclimated female Lewis rats were anesthetized with Isoflurane and receive subcutaneous/intradermal (SC/ID) injections with 300 μL of Freund's Incomplete Adjuvant (Difco, Detroit, Mich.) containing 2 mg/mL bovine type II collagen (Elastin Products, Owensville, Mo.) at the base of the tail and 2 sites on the back on day −9 and on day −3.
Collagen was prepared by making a 4 mg/mL solution in 0.01N Acetic acid. Equal volumes of collagen and Freund's incomplete adjuvant, were emulsified by hand mixing until a bead of this material holds its form when placed in water. Each animal received 300 μL of the mixture on each occasion divided over 3 subcutaneous sites on back.
On study day 1, onset of arthritis occurred and animals were randomized into treatment groups. After randomization, all cages were labelled with protocol number, group number, and animal numbers. Randomization into each group was done after ankle joint swelling was obviously established and there was good evidence of bilateral disease.
Animals with established type II collagen arthritis were treated daily (QD) by the oral (PO) route for 13 days with vehicle (methylcellulose 0.5% (w/v)), or with active compound(s) prepared in methylcellulose, 0.5% (w/v). Oral dosing was initiated on arthritis day 1 and continued daily (QD at 24 h intervals) through day 13. Animals were terminated on arthritis day 14.
The severity of the arthritis was evaluated by measuring the diameter of both ankles on the animals. Caliper measurements of ankles were taken every day beginning on day 0, with a Digitrix II micrometer (Fowler & NSK). Baseline measurements were taken using one ankle with values rounded to one-thousandth of an inch. Measurements were confirmed as clinically normal (0.260-0.264 in) by comparison with historical values for rats based on a range of body weights. Baseline measurements were then applied to both ankles, and these values remain with the animal so long as the ankle was clinically normal with good definition of all the ankle bones and no evidence of inflammation. Animals were terminated on day 14.

With O=C(Nc1nc2cccc(-c3ccc(CN4CCS(=O)(=O)CC4)cc3)n2n1)C1CC1 [Formula II, Cyclopropanecarboxylic acid {5-[4-(1,1-dioxo-thiomorpholin-4-ylmethyl)-phenyl]-[1,2,4]triazolo[1,5-a]pyridin-2-yl}-amide] the AUC [1] was 7300 ng·h/mL, the “In vitro metabolic profile of Formula II (as % of total radioactivity)” value (hepatocytes of rat) was “at least 80%” and the “In vitro metabolic profile of Formula II (as % of total radioactivity)” value (hepatocytes of rat; listed as drawing 10) was 86%. The “In vitro metabolic profile of Formula II (as % of total radioactivity)” value (hepatocytes of dog) was “at least 80%”, the “In vitro metabolic profile of Formula II (as % of total radioactivity)” value (hepatocytes of dog; listed as drawing 10) was 93% and the ankle diameter (rat CIA model; group C: Formula II 1 mg/kg PO QD, day 0) was 0.2625 inches. For the same molecule, the ankle diameter (rat CIA model; group C: Formula II 1 mg/kg PO QD, day 1) was 0.2716 inches, the ankle diameter (rat CIA model; group C: Formula II 1 mg/kg PO QD, day 2) was 0.2755 inches and the ankle diameter (rat CIA model; group C: Formula II 1 mg/kg PO QD, day 3) was 0.2869 inches. For the same molecule, the ankle diameter (rat CIA model; group C: Formula II 1 mg/kg PO QD, day 4) was 0.2990 inches, the ankle diameter (rat CIA model; group C: Formula II 1 mg/kg PO QD, day 5) was 0.3106 inches and the ankle diameter (rat CIA model; group C: Formula II 1 mg/kg PO QD, day 6) was 0.3231 inches. It also gave an ankle diameter (rat CIA model; group C: Formula II 1 mg/kg PO QD, day 7) of 0.3296 inches, an ankle diameter (rat CIA model; group C: Formula II 1 mg/kg PO QD, day 8) of 0.3291 inches and an ankle diameter (rat CIA model; group C: Formula II 1 mg/kg PO QD, day 9) of 0.3268 inches. It also gave an ankle diameter (rat CIA model; group C: Formula II 1 mg/kg PO QD, day 10) of 0.3270 inches, an ankle diameter (rat CIA model; group C: Formula II 1 mg/kg PO QD, day 11) of 0.3185 inches and an ankle diameter (rat CIA model; group C: Formula II 1 mg/kg PO QD, day 12) of 0.3178 inches. The ankle diameter (rat CIA model; group C: Formula II 1 mg/kg PO QD, day 13) was 0.3185 inches, the ankle diameter (rat CIA model; group C: Formula II 1 mg/kg PO QD, day 14) was 0.3226 inches and the ankle diameter (rat CIA model; group D: Formula II 3 mg/kg PO QD, day 0) was 0.2623 inches. It also gave an ankle diameter (rat CIA model; group D: Formula II 3 mg/kg PO QD, day 1) of 0.2718 inches, an ankle diameter (rat CIA model; group D: Formula II 3 mg/kg PO QD, day 2) of 0.2755 inches and an ankle diameter (rat CIA model; group D: Formula II 3 mg/kg PO QD, day 3) of 0.2869 inches. The ankle diameter (rat CIA model; group D: Formula II 3 mg/kg PO QD, day 4) was 0.2957 inches, the ankle diameter (rat CIA model; group D: Formula II 3 mg/kg PO QD, day 5) was 0.3058 inches and the ankle diameter (rat CIA model; group D: Formula II 3 mg/kg PO QD, day 6) was 0.3168 inches. It also gave an ankle diameter (rat CIA model; group D: Formula II 3 mg/kg PO QD, day 7) of 0.3205 inches, an ankle diameter (rat CIA model; group D: Formula II 3 mg/kg PO QD, day 8) of 0.3259 inches and an ankle diameter (rat CIA model; group D: Formula II 3 mg/kg PO QD, day 9) of 0.3216 inches. For the same molecule, the ankle diameter (rat CIA model; group D: Formula II 3 mg/kg PO QD, day 10) was 0.3197 inches, the ankle diameter (rat CIA model; group D: Formula II 3 mg/kg PO QD, day 11) was 0.3156 inches and the ankle diameter (rat CIA model; group D: Formula II 3 mg/kg PO QD, day 12) was 0.3165 inches. The ankle diameter (rat CIA model; group D: Formula II 3 mg/kg PO QD, day 13) was 0.3175 inches, the ankle diameter (rat CIA model; group D: Formula II 3 mg/kg PO QD, day 14) was 0.3174 inches and the “significance to vehicle control (ANOVA) in the CIA second model” value (rat CIA model; group E: Formula II 10 mg/kg PO QD) was “mg/kg (*) (((*) = p ≦ 0.05 ANOVA to vehicle control))”. It also gave an ankle diameter (rat CIA model; group E: Formula II 10 mg/kg PO QD, day 0) of 0.2626 inches, an ankle diameter (rat CIA model; group E: Formula II 10 mg/kg PO QD, day 1) of 0.2718 inches and an ankle diameter (rat CIA model; group E: Formula II 10 mg/kg PO QD, day 2) of 0.2744 inches. For the same molecule, the ankle diameter (rat CIA model; group E: Formula II 10 mg/kg PO QD, day 3) was 0.2808 inches, the ankle diameter (rat CIA model; group E: Formula II 10 mg/kg PO QD, day 4) was 0.2850 inches and the ankle diameter (rat CIA model; group E: Formula II 10 mg/kg PO QD, day 5) was 0.2921 inches. The ankle diameter (rat CIA model; group E: Formula II 10 mg/kg PO QD, day 6) was 0.3000 inches, the ankle diameter (rat CIA model; group E: Formula II 10 mg/kg PO QD, day 7) was 0.3031 inches and the ankle diameter (rat CIA model; group E: Formula II 10 mg/kg PO QD, day 8) was 0.3108 inches. The ankle diameter (rat CIA model; group E: Formula II 10 mg/kg PO QD, day 9) was 0.3119 inches, the ankle diameter (rat CIA model; group E: Formula II 10 mg/kg PO QD, day 10) was 0.3122 inches and the ankle diameter (rat CIA model; group E: Formula II 10 mg/kg PO QD, day 11) was 0.3090 inches. It also gave an ankle diameter (rat CIA model; group E: Formula II 10 mg/kg PO QD, day 12) of 0.3070 inches, an ankle diameter (rat CIA model; group E: Formula II 10 mg/kg PO QD, day 13) of 0.3069 inches and an ankle diameter (rat CIA model; group E: Formula II 10 mg/kg PO QD, day 14) of 0.3066 inches. For the same molecule, the “significance to vehicle control (ANOVA) in the CIA second model” value (rat CIA model; group F: Formula II 30 mg/kg PO QD) was “mg/kg (*) (((*) = p ≦ 0.05 ANOVA to vehicle control))”, the ankle diameter (rat CIA model; group F: Formula II 30 mg/kg PO QD, day 0) was 0.2620 inches and the ankle diameter (rat CIA model; group F: Formula II 30 mg/kg PO QD, day 1) was 0.2718 inches. It also gave an ankle diameter (rat CIA model; group F: Formula II 30 mg/kg PO QD, day 2) of 0.2679 inches, an ankle diameter (rat CIA model; group F: Formula II 30 mg/kg PO QD, day 3) of 0.2683 inches and an ankle diameter (rat CIA model; group F: Formula II 30 mg/kg PO QD, day 4) of 0.2708 inches. For the same molecule, the ankle diameter (rat CIA model; group F: Formula II 30 mg/kg PO QD, day 5) was 0.2698 inches, the ankle diameter (rat CIA model; group F: Formula II 30 mg/kg PO QD, day 6) was 0.2696 inches and the ankle diameter (rat CIA model; group F: Formula II 30 mg/kg PO QD, day 7) was 0.2706 inches. The ankle diameter (rat CIA model; group F: Formula II 30 mg/kg PO QD, day 8) was 0.2741 inches, the ankle diameter (rat CIA model; group F: Formula II 30 mg/kg PO QD, day 9) was 0.2721 inches and the ankle diameter (rat CIA model; group F: Formula II 30 mg/kg PO QD, day 10) was 0.2706 inches. It also gave an ankle diameter (rat CIA model; group F: Formula II 30 mg/kg PO QD, day 11) of 0.2711 inches, an ankle diameter (rat CIA model; group F: Formula II 30 mg/kg PO QD, day 12) of 0.2685 inches and an ankle diameter (rat CIA model; group F: Formula II 30 mg/kg PO QD, day 13) of 0.2684 inches. It also gave an ankle diameter (rat CIA model; group F: Formula II 30 mg/kg PO QD, day 14) of 0.2679 inches.
